Results taken from patent publication US6403607B1, “Sulfonamide derivatives and drugs containing the same as the active ingredient” (priority 1998, dated 2002).
In brackets after ≈: the same amount, converted by molar mass. Where two headings read alike, the source gives them in different places.

What was measured:
[1] = tested on: gastric acid secretion; assay: Acid-secretion suppression (pyloric ligation); assay type: in vivo, Rats; settings: pyloric region ligated, drug to the duodenum, gastric juice after four hours, total acidity by titration; dose not given
Method: Acid-secretion Suppression Rats were fasted for 24 hours and the abdomens of the rats were dissected under anesthesia with ether. The pyloric region was ligated and a drug was administered to the duodenum. After four hours, the stomach was removed and the gastric juice was collected to evaluate the acid-secretion suppresssing effects by measuring the total acidity of the gastric juice through titration.

[2] = tested on: ethanol ulcer in the gland gastric region; assay: Ethanol ulcer; assay type: in vivo; settings: rats fasted 24 hours, drug oral, 99.5% ethanol 1 ml/rat after one hour, size of ulcer one hour later; dose not given
Method: Ethanol Ulcer Rats were fasted for 24 hours and orally administered with a drug. After one hour, 99.5% ethanol (1 ml/rat) was fed through oral administration. After one hour of ethanol administration, the abdomens of the rats were dissected and the size of ulcer in the gland gastric region was measured for each rat.

[3] = molecular target: H/K-ATPase (Oryctolagus cuniculus, UniProt P27112); assay: H/K-ATPase inhibition; assay type: biochemical; settings: pH 7.4, H/K-ATPase from rabbit gastric mucous membrane
Method: H/K-ATPase Inhibition The inhibitory effect was measured under pH 7.4, by using H/K-ATPase isolated and purified from the rabbit gastric mucous membrane.

[4] = tested on: Helicobacter pylori; assay: Anti-Helicobacter-pylori action (agar plate dilution MIC); assay type: cell-based; settings: clinically isolated 10 bacterial strains, agar plate dilution method
Method: Anti-Helicobacter-pylori Action
Using clinically isolated 10 bacterial strains, the minimum inhibitory concentration (MIC) was measured according to the agar plate dilution method.

[5] = tested on: rat red blood cell; assay: Hemolytic action; assay type: cell-based; settings: 10% rat red blood cell stock, 1% DMSO containing saline, 30 minutes at 37° C., absorbance 540 nm
Method: Hemolytic Action […] After incubation for 30 minutes at, 37° C., the mixture was centrifugally separated and the supernatant was obtained. The absorbance (540 nm) of the supernatant was measured. The hemolysis ratio was calculated.

[6] = Helicobacter pylori, read-out: MIC

Chain of H/K-ATPase (P27112 whole entry): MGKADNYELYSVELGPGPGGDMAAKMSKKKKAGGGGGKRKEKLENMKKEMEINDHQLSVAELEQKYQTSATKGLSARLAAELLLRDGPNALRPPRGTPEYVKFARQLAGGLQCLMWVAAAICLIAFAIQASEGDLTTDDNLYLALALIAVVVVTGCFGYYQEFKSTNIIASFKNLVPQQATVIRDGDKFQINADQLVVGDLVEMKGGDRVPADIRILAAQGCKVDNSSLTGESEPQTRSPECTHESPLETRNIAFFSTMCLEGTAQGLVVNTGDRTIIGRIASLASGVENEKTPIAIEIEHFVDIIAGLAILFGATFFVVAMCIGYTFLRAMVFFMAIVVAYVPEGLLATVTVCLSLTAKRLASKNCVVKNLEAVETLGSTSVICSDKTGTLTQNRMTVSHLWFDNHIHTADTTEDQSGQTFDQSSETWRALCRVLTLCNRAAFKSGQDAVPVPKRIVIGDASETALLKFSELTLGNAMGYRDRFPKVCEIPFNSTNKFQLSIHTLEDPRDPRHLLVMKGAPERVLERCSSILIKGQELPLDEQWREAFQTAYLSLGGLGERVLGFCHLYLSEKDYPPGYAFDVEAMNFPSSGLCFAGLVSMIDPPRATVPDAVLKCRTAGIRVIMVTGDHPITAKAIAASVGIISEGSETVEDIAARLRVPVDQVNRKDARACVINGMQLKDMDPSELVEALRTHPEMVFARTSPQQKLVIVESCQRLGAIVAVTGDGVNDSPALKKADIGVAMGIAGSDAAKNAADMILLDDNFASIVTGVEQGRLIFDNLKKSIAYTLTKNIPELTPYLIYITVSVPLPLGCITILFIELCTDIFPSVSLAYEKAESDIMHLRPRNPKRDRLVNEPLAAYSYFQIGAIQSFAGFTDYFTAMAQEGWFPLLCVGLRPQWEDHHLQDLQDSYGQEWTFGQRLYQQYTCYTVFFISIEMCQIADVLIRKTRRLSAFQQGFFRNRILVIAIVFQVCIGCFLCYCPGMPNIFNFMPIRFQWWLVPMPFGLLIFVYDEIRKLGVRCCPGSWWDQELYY
Chain of H/K-ATPase (P18597 whole entry partner): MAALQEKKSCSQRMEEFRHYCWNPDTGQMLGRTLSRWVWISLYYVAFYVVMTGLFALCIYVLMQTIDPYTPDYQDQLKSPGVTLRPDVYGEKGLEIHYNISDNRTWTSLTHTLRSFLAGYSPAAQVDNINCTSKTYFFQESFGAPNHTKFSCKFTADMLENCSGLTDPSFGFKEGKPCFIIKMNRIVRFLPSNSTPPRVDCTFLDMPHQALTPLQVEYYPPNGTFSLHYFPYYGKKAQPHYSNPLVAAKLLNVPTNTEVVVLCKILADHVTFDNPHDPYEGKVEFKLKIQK

Row | Compound | Suppression [1] [%] | Suppression [2] [%] | IC50 [3] [nM] | MIC [4, 6] [µg/mL] | HC50 [5] [µg/mL] | MIC [4] [µg/mL]
1 | NCCOCCN(c1ccccc1NCCOc1ccc(Cl)cc1)S(=O)(=O)c1ccc(I)cc1 [Example 45, N-[2-(2-Amino)ethoxyethyl]-N-(4-iodobenzenesulfonyl)-N′-[2-(4-chlorophenoxy)ethyl]-o-phenylenediamine] | 80 | – | – | – | – | –
2 | NCCOCCN(c1cccc2c1N(CCOc1ccc(Cl)cc1)CCC2)S(=O)(=O)c1ccc(Cl)cc1 [Example 140, 8-[N-[2-(2-Aminoethoxy)ethyl]-N-(4-chlorobenzenesulfonyl)]amino-1-[2-(4-chlorophenoxy)ethyl]-1,2,3,4-tetrahydroquinone] | 85 | 94 | 2000 | – | – | –
3 | NCCOCCN(c1ccccc1NCCCOc1ccc(Cl)cc1)S(=O)(=O)c1ccc(Cl)cc1 [Example 61, N-[2-(2-Amino)ethoxyethyl]-N-(4-chlorobenzenesulfonyl)-N′-[3-(4-chlorophenoxy)propyl]-o-phenylenediamine] | 87 | – | – | – | – | –
4 | O=S(=O)(c1ccc(Cl)cc1)N(CCC1CCCCN1)c1cccnc1NCCNc1ccc(Cl)cc1 (centres unmarked) [Example 95] | 90 | 99 | – | – | – | –
5 | CCCCS(=O)(=O)N(CCOCCN)c1ccccc1NCCOc1ccc(Cl)cc1 [Example 21] | 76 | 99 | 49400 | 50 to 100 (≈ 106 to 213 µM) | 71.1 | –
6 | NCCOCCN(c1ccccc1N(CCOc1ccc(Cl)cc1)Cc1ccccc1)S(=O)(=O)c1ccc(Cl)cc1 [Example 70, N-[2-(2-Amino)ethoxyethyl]-N-(4-chlorobenzenesulfonyl)-N′-benzyl-N′-[2-(4-chlorophenoxy)ethyl]-o-phenylenediamine] | 81 | 96 | 1100 | 6.25 to 12.5 (≈ 10.2 to 20.3 µM) | – | –
7 | NCCOCCN(c1ccccc1N1CCN(c2ccc(Cl)cc2)CC1)S(=O)(=O)c1ccc(Cl)cc1 [Example 131, 2-[4-(4-Chlorophenyl)-1-piperazino]-1-[N-[2-(2-aminoethoxy)ethyl]-N-(4-chlorobenzenesulfonyl)]aminobenzene] | 89 | – | – | – | – | –
8 | NCCOCCN(c1cccnc1N1CCN(c2ccc(Cl)cc2)CC1)S(=O)(=O)c1ccc(Cl)cc1 [Example 137, 2-[4-(4-Chlorophenyl)-1-piperazino]-3-[N-[2-(2-aminoethoxy)ethyl]-N-(4-chlorobenzenesulfonyl)]aminopyridine] | 76 | – | – | – | – | –
9 | CCCS(=O)(=O)N(CCOCCN)c1ccccc1NCCOc1ccc(Cl)cc1 [Example 24, N-[2-(2-Amino)ethoxyethyl]-N-(1-propanesulfonyl)-N′-[2-(4-chlorophenoxy)ethyl]-o-phenylenediamine] | – | – | 130000 | – | 99.6 | –
10 | NCCOCCN(c1ccccc1NCCOc1ccc(Cl)cc1)S(=O)(=O)c1ccc(Br)cc1 [Example 43, N-[2-(2-Amino)ethoxyethyl]-N-(4-bromobenzenesulfonyl)-N′-[2-(4-chlorophenoxy)ethyl]-o-phenylenediamine] | 80 | 78 | – | – | >100 | –
11 | NCCCCCN(c1ccccc1NCCOc1ccc(Cl)cc1)S(=O)(=O)c1ccc(Cl)cc1 [Example 13, N-(5-Aminopenthyl)-N-(4-chlorobenzenesulfonyl)-N′-[2-(4-chlorophenoxy)ethyl]-o-phenylenediamine] | 82 | – | – | – | – | 25 to 50
12 | CCCCCCCCS(=O)(=O)N(CCOCCN)c1ccccc1NCCOc1ccc(Cl)cc1 [Example 26, N-[2-(2-Amino)ethoxyethyl]-N-(1-octanesulfonyl)-N′-[2-(4-chlorophenoxy)ethyl]-o-phenylenediamine] | 82 | 98 | 2100 | – | – | –
13 | NCCOCCN(c1ccccc1N1CCCN(c2ccc(Cl)cc2)CC1)S(=O)(=O)c1ccc(Cl)cc1 [Example 134, 2-[4-(4-Chlorophenyl)-1-homopiperazino]-1-[N-[2-(2-aminoethoxy)ethyl]-N-(4-chlorobenzenesulfonyl)]aminobenzene] | 87 | 98 | – | – | – | –
14 | CN(CCOc1ccc(Cl)cc1)c1ccccc1N(CCOCCN)S(=O)(=O)c1ccc(Cl)cc1 [Example 68] | 83 | 94 | – | – | – | –
